Results from patent publication US20230279025A1, “KRAS G12D INHIBITORS” (Mirati Therapeutics, Inc., priority 2020, published 2023).

Target: KRas G12D (Homo sapiens (Human), UniProt P01116, G12D)
Assay: KRas G12D Binding Assay (TR-FRET displacement of Cy5 labelled tracer)
Conditions: GDP-loaded KRAS G12D (amino acids 1:169), 60 minute incubation at 22° C.
Experimental: After a 60 minute incubation at 22° C., the reaction was measured using a PerkinElmer EnVision multimode plate reader via TR-FRET dual wavelength detection, and the percent of control (POC) calculated using a ratiometric emission factor. […] The POC values were fit to a 4-parameter logistic curve and the IC50 value was determined as the concentration where the curve crosses 50 POC.
ND stands for “not determined.”

KRas G12D, sequence (P01116 other isoform, or with tags, fused parts or gaps G12D): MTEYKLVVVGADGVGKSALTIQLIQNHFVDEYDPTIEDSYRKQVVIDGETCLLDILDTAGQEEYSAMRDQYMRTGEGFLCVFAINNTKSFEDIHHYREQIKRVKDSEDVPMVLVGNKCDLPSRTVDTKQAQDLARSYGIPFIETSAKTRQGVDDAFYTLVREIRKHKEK

Compound: CCc1c(F)ccc2cc(O)cc(-c3ncc4c(N5C[C@H]6CC[C@@H](C5)N6)nc(OC[C@]56CCCN5[C@@H](COC(=O)N(C)C)CC6)nc4c3F)c12 [Example 441, ((3R,7aR)-7a-(((4-((1R,5S)-3,8-diazabicyclo[3.2.1]octan-3-yl)-7-(8-ethyl-7-fluoro-3-hydroxynaphthalen-1-yl)-8-fluoropyrido[4,3-d]pyrimidin-2-yl)oxy)methyl)hexahydro-1H-pyrrolizin-3-yl)methyl dimethylcarbamate]
- IC50: 0.5 nM

Compound: CN1CCc2cccc(Oc3nc(N4C[C@H]5CC[C@@H](C4)N5)c4cnc(-c5cccc6cccc(Cl)c56)c(F)c4n3)c2C1 [Example 378, 4-((1R,5S)-3,8-diazabicyclo[3.2.1]octan-3-yl)-7-(8-chloronaphthalen-1-yl)-8-fluoro-2-((2-methyl-1,2,3,4-tetrahydroisoquinolin-8-yl)oxy)pyrido[4,3-d]pyrimidine]
- IC50: 6250 nM

Compound: Fc1c(-c2ccccc2C2CC2)ncc2c(N3C[C@H]4CC[C@@H](C3)N4)nc(OCC34CCCN3CCC4)nc12 [Example 297]
- IC50: 88.9 nM

Compound: CN1CCCC1(CO)COc1nc(N2C[C@H]3CC[C@@H](C2)N3)c2cnc(-c3cccc4ccccc34)c(F)c2n1 (stereo partly drawn) [Example 323, (2-(((4-((1R,5S)-3,8-diazabicyclo[3.2.1]octan-3-yl)-8-fluoro-7-(naphthalen-1-yl)pyrido[4,3-d]pyrimidin-2-yl)oxy)methyl)-1-methylpyrrolidin-2-yl)methanol]
- IC50: 1690 nM

Compound: O[C@@H]1C[C@@H]2CN(c3nc(OCCn4ccnc4C(F)F)nc4c(F)c(-c5cccc6cccc(Cl)c56)ncc34)C[C@H]1N2 [Example 172, (1R,5R,6R)-3-(7-(8-chloronaphthalen-1-yl)-2-(2-(2-(difluoromethyl)-1H-imidazol-1-yl)ethoxy)-8-fluoropyrido[4,3-d]pyrimidin-4-yl)-3,8-diazabicyclo[3.2.1]octan-6-ol]
- IC50: 689 nM

Compound: Cn1cc(CCOc2nc(N3C[C@H]4CC[C@@H](C3)N4)c3cnc(-c4cccc5cccc(Cl)c45)c(F)c3n2)cn1 [Example 146, 4-((1R,5S)-3,8-diazabicyclo[3.2.1]octan-3-yl)-7-(8-chloronaphthalen-1-yl)-8-fluoro-2-(2-(1-methyl-1H-pyrazol-4-yl)ethoxy)pyrido[4,3-d]pyrimidine]
- IC50: 2290 nM

Compound: C=Cc1cccc2cccc(-c3ncc4c(N5C[C@H]6CC[C@@H](C5)N6)nc(OC[C@@H]5CCCN5C)nc4c3F)c12 [Example 201, 4-((1R,5S)-3,8-diazabicyclo[3.2.1]octan-3-yl)-8-fluoro-2-(((S)-1-methylpyrrolidin-2-yl)methoxy)-7-(8-vinyInaphthalen-1-yl)pyrido[4,3-d]pyrimidine]
- IC50: 70.2 nM

Compound: Cn1cnnc1CCOc1nc(N2C[C@H]3CC[C@@H](C2)N3)c2cnc(-c3cccc4cccc(Cl)c34)c(F)c2n1 [Example 154, 4-((1R,5S)-3,8-diazabicyclo[3.2.1]octan-3-yl)-7-(8-chloronaphthalen-1-yl)-8-fluoro-2-(2-(4-methyl-4H-1,2,4-triazol-3-yl)ethoxy)pyrido[4,3-d]pyrimidine]
- IC50: 6530 nM

Compound: COc1cccc2cccc(-c3ncc4c(N5C[C@H]6CC[C@@H](C5)N6)nc(OCC56CCCN5CCC6)nc4c3F)c12 [Example 236, 4-((1R,5S)-3,8-diazabicyclo[3.2.1]octan-3-yl)-8-fluoro-2-((hexahydro-1H-pyrrolizin-7a-yl)methoxy)-7-(8-methoxynaphthalen-1-yl)pyrido[4,3-d]pyrimidine]
- IC50: 25 nM

Compound: CSc1ccccc1-c1ncc2c(N3C[C@H]4CC[C@@H](C3)N4)nc(OCC34CCCN3CCC4)nc2c1F [Example 329, 4-((1R,5S)-3,8-diazabicyclo[3.2.1]octan-3-yl)-8-fluoro-7-(2-(methylthio)phenyl)-2-((tetrahydro-1H-pyrrolizin-7a(5H)-yl)methoxy)pyrido[4,3-d]pyrimidine]
- IC50: 202 nM

Compound: CN1CC[C@@H](COc2nc(N3C[C@H]4CC[C@@H](C3)N4)c3cnc(-c4cccc5cccc(Cl)c45)c(F)c3n2)C1 [Example 356, 4-((1R,5S)-3,8-diazabicyclo[3.2.1]octan-3-yl)-7-(8-chloronaphthalen-1-yl)-8-fluoro-2-(((R)-1-methylpyrrolidin-3-yl)methoxy)pyrido[4,3-d]pyrimidine]
- IC50: 87.2 nM

Compound: CCc1c(F)ccc2cccc(-c3ncc4c(N5C[C@H]6CC[C@@H](C5)N6)nc(OCC56CCCN5CCC6)nc4c3F)c12 [Example 426, 4-((1R,5S)-3,8-diazabicyclo[3.2.1]octan-3-yl)-7-(8-ethyl-7-fluoronaphthalen-1-yl)-8-fluoro-2-((hexahydro-1H-pyrrolizin-7a-yl)methoxy)pyrido[4,3-d]pyrimidine]
- IC50: 0.9 nM

Compound: O=C(NCCOc1nc(N2C[C@H]3CC[C@@H](C2)N3)c2cnc(-c3cc(O)cc4ccccc34)c(F)c2n1)c1ccc(S(=O)(=O)F)cc1 [Example 212, 4-((2-((4-((1R,5S)-3,8-diazabicyclo[3.2.1]octan-3-yl)-8-fluoro-7-(3-hydroxynaphthalen-1-yl)pyrido[^4,3-d]pyrimidin-2-yl)oxy)ethyl)carbamoyl)benzenesulfonyl fluoride bis(2,2,2-trifluoroacetate)]
- IC50: 1220 nM

Compound: CCc1cccc2cccc(-c3ncc4c(N5C[C@H]6CC[C@@H](C5)N6)nc(OC[C@@]56CCCN5C[C@H](F)C6)nc4c3F)c12 [Example 465, 4-((1R,5S)-3,8-diazabicyclo[3.2.1]octan-3-yl)-7-(8-ethylnaphthalen-1-yl)-8-fluoro-2-(((2R,7aS)-2-fluorohexahydro-1H-pyrrolizin-7a-yl)methoxy)pyrido[4,3-d]pyrimidine]
- IC50: 0.001 nM

Compound: Fc1c(-c2ccccc2C2CC2)ncc2c(N3C[C@H]4CC[C@@H](C3)N4)nc(OC[C@@]34CCCN3C[C@H](F)C4)nc12 [Example 448, 4-((1R,5S)-3,8-diazabicyclo[3.2.1]octan-3-yl)-7-(2-cyclopropylphenyl)-8-fluoro-2-(((2R,7aS)-2-fluorohexahydro-1H-pyrrolizin-7a-yl)methoxy)pyrido[4,3-d]pyrimidine]
- IC50: 130 nM

Compound: C#Cc1c(F)ccc2cccc(-c3ncc4c(N5C[C@H]6CC[C@@H](C5)N6)nc(OC[C@]56CCCN5[C@@H](COC(=O)N(C)C)CC6)nc4c3F)c12 [Example 439, ((3R,7aR)-7a-(((4-((1R,5S)-3,8-diazabicyclo[3.2.1]octan-3-yl)-7-(8-ethynyl-7-fluoronaphthalen-1-yl)-8-fluoropyrido[4,3-d]pyrimidin-2-yl)oxy)methyl)hexahydro-1H-pyrrolizin-3-yl)methyl dimethylcarbamate]
- IC50: 0.4 nM

Compound: Fc1c(-c2c(C(F)(F)F)ccc3[nH]ncc23)ncc2c(N3C[C@H]4CC[C@@H](C3)N4)nc(OCC34CCCN3CCC4)nc12 [Example 344, 4-((1R,5S)-3,8-diazabicyclo[3.2.1]octan-3-yl)-8-fluoro-2-((tetrahydro-1H-pyrrolizin-7a(5H)-yl)methoxy)-7-(5-(trifluoromethyl)-1H-indazol-4-yl)pyrido[4,3-d]pyrimidine]
- IC50: 10.9 nM

Compound: CC(C)c1c(F)cccc1-c1ncc2c(N3C[C@H]4CC[C@@H](C3)N4)nc(OCC34CCCN3CCC4)nc2c1F [Example 299, 4-((1R,5S)-3,8-diazabicyclo[3.2.1]octan-3-yl)-8-fluoro-7-(3-fluoro-2-isopropylphenyl)-2-((hexahydro-1H-pyrrolizin-7a-yl)methoxy)pyrido[4,3-d]pyrimidine]
- IC50: 132 nM

Compound: CN1CCC[C@H]1COc1nc(N2CC3CCC(C2)N3)c2cnc(-c3c(Cl)c(O)cc4ccccc34)c(F)c2n1 [Example 337, 4-(4-(3,8-diazabicyclo[3.2.1]octan-3-yl)-8-fluoro-2-(((S)-1-methylpyrrolidin-2-yl)methoxy)pyrido[4,3-d]pyrimidin-7-yl)-3-chloronaphthalen-2-ol]
- IC50: 2.2 nM

Compound: CNC(C)COc1nc(N2CC3CCC(C2)N3)c2cnc(-c3cccc4cccc(Cl)c34)c(F)c2n1 (stereo not shown) [Example 363, bis(2,2,2-trifluoroacetate)]
- IC50: 3930 nM

Compound: Cc1ccc2sc(N)nc2c1-c1ncc2c(N3C[C@H]4CC[C@@H](C3)N4)nc(OCC34CCCN3CCC4)nc2c1F [Example 458, 4-(4-((1R,5S)-3,8-diazabicyclo[3.2.1]octan-3-yl)-8-fluoro-2-((hexahydro-1H-pyrrolizin-7a-yl)methoxy)pyrido[4,3-d]pyrimidin-7-yl)-5-methylbenzo[d]thiazol-2-amine]
- IC50: 143 nM

Compound: CC1(C)CN2C[C@H](F)CC2(COc2nc(N3CC4CCC(C3)N4)c3cnc(-c4cccc5cccc(Cl)c45)c(F)c3n2)C1 (mixture of isomers) [Example 325, 4-((1R,5S)-3,8-diazabicyclo[3.2.1]octan-3-yl)-7-(8-chloronaphthalen-1-yl)-8-fluoro-2-((6-fluoro-2,2-dimethyltetrahydro-1H-pyrrolizin-7a(5H)-yl)methoxy)pyrido[4,3-d]pyrimidine (racemic, trans)]
- IC50: 141 nM

Compound: Fc1c(-c2ccccc2OC(F)F)ncc2c(N3C[C@H]4CC[C@@H](C3)N4)nc(OCC34CCCN3CCC4)nc12 [Example 303, 4-((1R,5S)-3,8-diazabicyclo[3.2.1]octan-3-yl)-7-(2-(difluoromethoxy)phenyl)-8-fluoro-2-((hexahydro-1H-pyrrolizin-7a-yl)methoxy)pyrido[4,3-d]pyrimidine]
- IC50: 357 nM

Compound: Oc1c(F)cc(F)c(-c2ncc3c(N4C[C@H]5CC[C@@H](C4)N5)nc(OCC45CCCN4CCC5)nc3c2F)c1F [Example 350, 3-(4-((1R,5S)-3,8-diazabicyclo[3.2.1]octan-3-yl)-8-fluoro-2-((tetrahydro-1H-pyrrolizin-7a(5H)-yl)methoxy)pyrido[4,3-d]pyrimidin-7-yl)-2,4,6-trifluorophenol]
- IC50: 3820 nM

Compound: CCc1cccc2cccc(-c3ncc4c(N5C[C@H]6CC[C@@H](C5)N6)nc(OCC56CCCN5CCC6)nc4c3F)c12 [Example 187, 4-((1R,5S)-3,8-diazabicyclo[3.2.1]octan-3-yl)-7-(8-ethylnaphthalen-1-yl)-8-fluoro-2-((tetrahydro-1H-pyrrolizin-7a(5H)-yl)methoxy)pyrido[4,3-d]pyrimidine]
- IC50: 1.7 nM
